Reference: patent US20220380341A1, “INHIBITORS OF HIV-1 NEF FOR THE TREATMENT OF HIV DISEASE” (priority 2018, published 2022)
Like-named read-outs stand apart in the source and are kept apart here.

Experiments:
TZM-bl cell line = assay type: cell-based; details: human, 1 μM
In short: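 Luciferase read-out 48 h post-infection; compound at 1 μM during HIV-1NL4-3 infection of TZM-bl cells. Percent inhibition scaled to DMSO wild-type virus (0%) and DMSO Nef-defective virus (100% of Nef-dependent effect). Viability checked separately in uninfected cells by Cell Titer Blue.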

HIV-1NL4-3 = assay: HIV-1 infectivity assay in TZM-bl reporter cell line (LTR-luciferase, 48 h); assay type: cell-based; details: Human immunodeficiency virus 1, TZM-bl
In short: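 Percent inhibition of HIV-1NL4-3 infectivity at 1 μM compound, from luciferase output of TZM-bl cells 48 h after infection. Scale anchors are DMSO-treated wild-type infection as zero and DMSO-treated Nef-defective infection as full Nef-dependent effect.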

HIV-1 NefNL4-3 = HIV-1 NefNL4-3 (Human immunodeficiency virus type 1 group M subtype B, UniProt P03406, A33V/T15A/T51N/V11I); assay: Surface plasmon resonance binding to recombinant full-length Nef (NL4-3); details: for RU30/RUNef (extent of binding): response units at 30 μM relative to Nef immobilized on the SPR chip; for Nef NL4-3 Binding, SPR 1:1 or 2-site fitting KD1: 1:1 Langmuir fit where the KD2 cell says '1 to 1 fitting', else 2-site fit
[1] = 1.0 μM, TZM-bl reporter cell line, Table 4, read-out: % Infectivity Inhibition
[2] = 48 h, Table 1, TZM-bl cells, 1 μM, 48 h, 100% = Nef-defective HIV-1, read-out: HIV-1 Infectivity % Inhibition Norm. to Δ-Nef @ 1 μM
[3] = KD, M, Table 4, SPR fit 2-step induced fit, KD = koff/kon × koff2/(koff2 + kon2)
[4] = Nef NL4-3 Binding, SPR 2-state fitting KD, Table 1, 2-step induced-fit model
[5] = Table 4, 2-step induced fit, T = 1/koff2
[6] = read-out: Nef NL4-3 Binding, SPR 1:1 or 2-site fitting KD2, Table 1, 2-site fit, second component
[7] = KD, M, Table 4, SPR fit 1:1 Langmuir, KD = koff/kon
[8] = Table 4, 1:1 Langmuir fit, T = 1/koff

Structure (SMILES): O=C(c1ccc(F)cc1)N1CCC(CCc2c(C3CC3)nn(-c3nc4cc(Cl)ccc4[nH]3)c2O)CC1 [Compound I-710, 1-(5-chloro-1H-1,3-benzodiazol-2-yl)-3-cyclopropyl-4-{2-[1-(4-fluorobenzoyl)piperidin-4-yl]ethyl}-1H-pyrazol-5-ol]
- % Cell Viability (TZM-bl cell line): 100%
- Percent Viability @ 1 μM (TZM-bl cells) (TZM-bl cell line): 106.9%
- inhibition at 1 µM (HIV-1NL4-3; [1]): 2.5%
- inhibition at 1 µM (HIV-1NL4-3; [2]): 2.5%
- Kd (HIV-1 NefNL4-3; [3]): 2460 nM
- Kd (HIV-1 NefNL4-3; [4]): 2460 nM
- T, minutes (residence time) (HIV-1 NefNL4-3; [5]): 4.16E + 00 minutes
- Kd (HIV-1 NefNL4-3; [6]): 9780 nM
- RU30/RUNef (extent of binding) (HIV-1 NefNL4-3): 2.12E- 02

Structure (SMILES): O=C(C1CC1)N1CCC(CCc2c(C3CC3)nn(-c3nc4cc(Cl)ccc4[nH]3)c2O)CC1 [Compound I-711, 1-(5-chloro-1H-1,3-benzodiazol-2-yl)-4-[2-(1-cyclopropanecarbonylpiperidin-4-yl)ethyl]-3-cyclopropyl-1H-pyrazol-5-ol]
- % Cell Viability (TZM-bl cell line): 97.2%
- Percent Viability @ 1 μM (TZM-bl cells) (TZM-bl cell line): 97.2%
- inhibition at 1 µM (HIV-1NL4-3; [1]): 0%
- inhibition at 1 µM (HIV-1NL4-3; [2]): -0.4%
- Kd (HIV-1 NefNL4-3; [3]): 3290 nM
- Kd (HIV-1 NefNL4-3; [4]): 3290 nM
- T, minutes (residence time) (HIV-1 NefNL4-3; [5]): 5.97E + 00 minutes
- Kd (HIV-1 NefNL4-3; [6]): 8640 nM
- RU30/RUNef (extent of binding) (HIV-1 NefNL4-3): 1.96E- 02

Structure (SMILES): CC(=O)N1CCC(c2c(-c3ccc(C(F)(F)F)cc3)nn(-c3nc4ccccc4[nH]3)c2O)CC1 [Compound I-713, 1-{4-[1-(1H-1,3-benzodiazol-2-yl)-5-hydroxy-3-[4-(trifluoromethyl)phenyl]-1H-pyrazol-4-yl]piperidin-1-yl}ethan-1-one]
- Percent Viability @ 1 μM (TZM-bl cells) (TZM-bl cell line): 76.8%
- inhibition at 1 µM (HIV-1NL4-3; [2]): 27.8%
- Kd (HIV-1 NefNL4-3): 378000 nM

Structure (SMILES): CC(=O)N1CCC(CCc2c(-c3ccc(C(F)(F)F)cn3)nn(-c3nc4ccccc4[nH]3)c2O)CC1 [Compound I-714, 1-(4-{2-[1-(1H-1,3-benzodiazol-2-yl)-5-hydroxy-3-[5-(trifluoromethyl)pyridin-2-yl]-1H-pyrazol-4-yl]ethyl}piperidin-1-yl)ethan-1-one]
- % Cell Viability (TZM-bl cell line): 98.3%
- Percent Viability @ 1 μM (TZM-bl cells) (TZM-bl cell line): 98.3%
- inhibition at 1 µM (HIV-1NL4-3; [1]): 63.6%
- inhibition at 1 µM (HIV-1NL4-3; [2]): 63.6%
- Kd (HIV-1 NefNL4-3): 1110 nM
- Kd (HIV-1 NefNL4-3; [7]): 1110 nM
- T, minutes (residence time) (HIV-1 NefNL4-3; [8]): 3.64E + 00 minutes
- RU30/RUNef (extent of binding) (HIV-1 NefNL4-3): 1.32E- 03

Structure (SMILES): COC(=O)N1CCC(CCc2c(-c3ccc(C(F)(F)F)cn3)nn(-c3nc4ccccc4[nH]3)c2O)CC1 [Compound I-715, methyl 4-{2-[1-(1H-1,3-benzodiazol-2-yl)-5-hydroxy-3-[5-(trifluoromethyl)pyridin-2-yl]-1H-pyrazol-4-yl]ethyl}piperidine-1-carboxylate]
- % Cell Viability (TZM-bl cell line): 99.1%
- Percent Viability @ 1 μM (TZM-bl cells) (TZM-bl cell line): 99.1%
- inhibition at 1 µM (HIV-1NL4-3; [1]): 25.2%
- inhibition at 1 µM (HIV-1NL4-3; [2]): 25.2%
- Kd (HIV-1 NefNL4-3): 686 nM
- Kd (HIV-1 NefNL4-3; [3]): 2510 nM
- Kd (HIV-1 NefNL4-3; Nef NL4-3 Binding, SPR 1:1 or 2-site fitting KD2, Table 1, 2-site fit, second component): 1330 nM
- Kd (HIV-1 NefNL4-3; [4]): 2510 nM
- T, minutes (residence time) (HIV-1 NefNL4-3; [5]): 3.76E + 00 minutes
- RU30/RUNef (extent of binding) (HIV-1 NefNL4-3): 5.47E- 03

Structure (SMILES): CS(=O)(=O)N1CCC(CCc2c(-c3ccc(C(F)(F)F)cn3)nn(-c3nc4ccccc4[nH]3)c2O)CC1 [Compound I-716]
- % Cell Viability (TZM-bl cell line): 97.1%
- Percent Viability @ 1 μM (TZM-bl cells) (TZM-bl cell line): 97.1%
- inhibition at 1 µM (HIV-1NL4-3; [1]): 22.8%
- inhibition at 1 µM (HIV-1NL4-3; [2]): 22.8%
- Kd (HIV-1 NefNL4-3): 1970 nM
- Kd (HIV-1 NefNL4-3; [3]): 4370 nM
- Kd (HIV-1 NefNL4-3; [4]): 4370 nM
- T, minutes (residence time) (HIV-1 NefNL4-3; [5]): 3.22E + 00 minutes
- RU30/RUNef (extent of binding) (HIV-1 NefNL4-3): 5.13E- 03

Structure (SMILES): CC(C)OC(=O)N1CCC(CCc2c(-c3ccc(Br)cn3)nn(-c3nc4ccccc4[nH]3)c2O)CC1 [Compound I-717, propan-2-yl4-{2-[1-(1H-1,3-benzodiazol-2-yl)-3-(5-bromopyridin-2-yl)-5-hydroxy-1H-pyrazol-4-yl]ethyl}piperidine-1-carboxylate]
- Percent Viability @ 1 μM (TZM-bl cells) (TZM-bl cell line): 104.1%
- inhibition at 1 µM (HIV-1NL4-3; [2]): -1.8%
- Nef NL4-3 Binding, SPR 1:1 or 2-site fitting KD1 (HIV-1 NefNL4-3; Table 1): No Interaction

Structure (SMILES): CS(=O)(=O)N1CCC(Cc2c(-c3ccc(C(F)(F)F)cc3)nn(-c3nc4ccccc4[nH]3)c2O)CC1 [Compound I-718, 1-(1H-1,3-benzodiazol-2-y1)-4-[(1-methanesulfonylpiperidin-4-yl)methyl]-3-[4-(trifluoromethyl)phenyl]-1H-pyrazol-5-ol]
- % Cell Viability (TZM-bl cell line): 89.1%
- Percent Viability @ 1 μM (TZM-bl cells) (TZM-bl cell line): 89.1%
- inhibition at 1 µM (HIV-1NL4-3; [1]): 56.3%
- inhibition at 1 µM (HIV-1NL4-3; [2]): 56.3%
- Kd (HIV-1 NefNL4-3): 597 nM
- Kd (HIV-1 NefNL4-3; [7]): 597 nM
- T, minutes (residence time) (HIV-1 NefNL4-3; [8]): 3.62E + 00 minutes
- RU30/RUNef (extent of binding) (HIV-1 NefNL4-3): 1.22E- 03

Structure (SMILES): CC(=O)N1CCC(CCc2c(-c3ccc(C(F)(F)F)cc3)nn(-c3nc4ccccc4[nH]3)c2O)CC1 [Compound I-719, 1-(4-{2-[1-(1H-1,3-benzodiazol-2-yl)-5-hydroxy-3-[4-(trifluoromethyl)phenyl]-1H-pyrazol-4-yl]ethyl}piperidin-1-yl)ethan-1-one]
- % Cell Viability (TZM-bl cell line): 98.0%
- Percent Viability @ 1 μM (TZM-bl cells) (TZM-bl cell line): 98.0%
- inhibition at 1 µM (HIV-1NL4-3; [1]): 0%
- inhibition at 1 µM (HIV-1NL4-3; [2]): -8.3%
- Kd (HIV-1 NefNL4-3): 2200 nM
- Kd (HIV-1 NefNL4-3; [3]): 451 nM
- Kd (HIV-1 NefNL4-3; [4]): 451 nM
- T, minutes (residence time) (HIV-1 NefNL4-3; [5]): 4.44E + 01 minutes
- RU30/RUNef (extent of binding) (HIV-1 NefNL4-3): 9.42E- 03

Structure (SMILES): CCOC(=O)N1CCC(c2nn(-c3nc4ccccc4[nH]3)c(O)c2CCC2CCOCC2)CC1 [Compound I-723, ethyl 4-[1-(1H-1,3-benzodiazol-2-yl)-5-hydroxy-4-[2-(oxan-4-yl)ethyl]-1H-pyrazol-3-yl]piperidine-1-carboxylate]
- % Cell Viability (TZM-bl cell line): 92.2%
- Percent Viability @ 1 μM (TZM-bl cells) (TZM-bl cell line): 92.2%
- inhibition at 1 µM (HIV-1NL4-3; [1]): 0%
- inhibition at 1 µM (HIV-1NL4-3; [2]): -18.1%
- Kd (HIV-1 NefNL4-3): 2100 nM
- Kd (HIV-1 NefNL4-3; [3]): 9090 nM
- Kd (HIV-1 NefNL4-3; [4]): 9090 nM
- T, minutes (residence time) (HIV-1 NefNL4-3; [5]): 5.21E + 00 minutes
- Kd (HIV-1 NefNL4-3; [6]): 12200 nM
- RU30/RUNef (extent of binding) (HIV-1 NefNL4-3): 9.19E- 03

Structure (SMILES): CN(C)S(=O)(=O)N1CCC(c2nn(-c3nc4ccccc4[nH]3)c(O)c2CCC2CCOCC2)CC1 [Compound I-724, 4-[1-(1H-1,3-benzodiazol-2-yl)-5-hydroxy-4-[2-(oxan-4-yl)ethyl]-1H-pyrazol-3-yl]-N,N-dimethylpiperidine-1-sulfonamide]
- Percent Viability @ 1 μM (TZM-bl cells) (TZM-bl cell line): 98.6%
- inhibition at 1 µM (HIV-1NL4-3; [2]): 55.8%
- Nef NL4-3 Binding, SPR 1:1 or 2-site fitting KD1 (HIV-1 NefNL4-3; Table 1): No Interaction

Structure (SMILES): CC(C)OC(=O)N1CCC(c2nn(-c3nc4ccccc4[nH]3)c(O)c2CC2CCOCC2)CC1 [Compound I-725, propan-2-yl 4-[1-(1H-1,3-benzodiazol-2-yl)-5-hydroxy-4-[(oxan-4-yl)methyl]-1H-pyrazol-3-yl]piperidine-1-carboxylate]
- % Cell Viability (TZM-bl cell line): 95.6%
- Percent Viability @ 1 μM (TZM-bl cells) (TZM-bl cell line): 95.6%
- inhibition at 1 µM (HIV-1NL4-3; [1]): 37.4%
- inhibition at 1 µM (HIV-1NL4-3; [2]): 37.4%
- Kd (HIV-1 NefNL4-3): 3290 nM
- Kd (HIV-1 NefNL4-3; [7]): 3290 nM
- T, minutes (residence time) (HIV-1 NefNL4-3; [8]): 4.73E + 00 minutes
- RU30/RUNef (extent of binding) (HIV-1 NefNL4-3): 3.88E- 03

Structure (SMILES): CN1CCN(CC(=O)N2CCC(c3nn(-c4nc5ccccc5[nH]4)c(O)c3CCc3ccc(F)cc3)CC2)CC1 [Compound I-726, 1-{4-[1-(1H-1,3-benzodiazol-2-yl)-4-[2-(4-fluorophenyl)ethyl]-5-hydroxy-1H-pyrazol-3-yl]piperidin-1-yl}-2-(4-methylpiperazin-1-yl)ethan-1-one]
- Percent Viability @ 1 μM (TZM-bl cells) (TZM-bl cell line): 102.4%
- inhibition at 1 µM (HIV-1NL4-3; [2]): -4.6%
- Nef NL4-3 Binding, SPR 1:1 or 2-site fitting KD1 (HIV-1 NefNL4-3; Table 1): No Interaction
